Residues, ends and D or L forms follow the SMILES beside them.
Legend:
HeLa S3 cells = assay: Protective effect of peptides on apoptosis and necrosis in the presence of camptothecin (Annexin-V FITC / PI flow cytofluorimetry); assay type: cell-based, human; conditions: HeLa cell culture, 24 hours
Description: (§1) The experiments to study the effect of peptides on apoptosis and necrosis involved the use of reagents in the ApoTarget Annexin-V FITC Apoptosis Kit (Invitrogen, CIIIA). In addition to Annexin-V, marked by the FITC fluorescent stain, the ApoTarget Annexin-V FITC Apoptosis Kit contains propidium iodide (PI), a dye. PI can permeate only those cells whose cytoplasmic membrane is damaged, which is a characteristic sign of an advanced stage of apoptosis or necrosis. Having permeated cells with damaged cell membrane, PI binds itself to the DNA. The «red» fluorescence of resulting complexes is identified with a flow cytofluorimeter.
(§2) Therefore, the procedure of double staining (Annexin-V FITC plus PI) and the process of flow cytofluorimetry can be used to distinguish 3 cell populations and determine their percentage relationship: 1) non-apoptotic cells (Annexin-V-negative and PI-negative), 2) cells at an early stage of apoptosis (Annexin-V-positive and PI-negative), 3) necrotic cells or cells at an advanced stage of apoptosis (Annexin-V- positive and PI- positive). An increase in the percentage of apoptotic and necrotic cells can serve as a measure of how the compounds added to the culture medium act on these processes. Camptothecin (Camptothecin, Sigma, CIIIA), which is recommended by the manufacturer, was used as control in the experiments because of its pronounced ability to induce apoptosis and necrosis of cells, especially tumor ones.
(§3) Peptide solutions in sterile PBS with concentrations of 1 mg/ml were prepared immediately before the experiments to study the peptides' effect on apoptosis and necrosis. The same solutions that were stored in sterile test tubes at +4°C were used to study the proliferation activity. Working dilutions of peptides in the cell cultivation medium were prepared on the day of each experiment. A sterile plastic 96-well plate (Corning, USA) was used for this purpose. The dilutions were prepared so that the introduction of 25 µl of each working dilution in an experimental well with cultivated cells would result in final concentrations of peptides equal to 400, 200, 100 and 50 ng/ml.
(§4) The HeLa S3 and NIH 3T3 cells were cultivated with the use of reagents manufactured by Invitrogen (USA) and plastic vials, plates, pipettes and filters of Corning (USA). The cells were cultivated in DMEM, prepared with a dry concentrate dissolved in pyrogen-free distilled water (Millipore, USA). The medium contained 10 % FBS, 2 mM of glutamine and penicillin-streptomycin (diluted according to the vendor's recommendations). HeLa S3 and NIH 3T3 were grown in vials T150 at +37 °C in the atmosphere of 5.6 % CO2. The cells were constantly maintained in the logarithmic growth phase, to this end they were passed at least 2 times a week, with trypsin used to remove cells from the walls of the culture vials. Live cells were counted in a hemacytometer after staining the suspension aliquot with trypan blue.
(§5) The HeLa S3 and NIH 3T3 cells were removed from the surface of the culture vials and counted; the concentration was moved to 10^5 cell/ml, and the resulting suspensions were put in doses of 1 ml in the wells of a 24-well plate.
(§6) Having made sure on the following day that the cells adhered to the plate's surface, the culture medium was replaced with a fresh one in each well.
(§7) Camptothecin was added in the control wells (positive control - stimulation of apoptosis and necrosis) to the final concentration of 50 µM that had been determined in preliminary experiments with the NIH 3T3 and HeLa S3 cells. 25 µl of fresh culture medium were added in the control wells (negative control), 25 µl of working peptide dilutions were added in each experimental well (each working dilution - twice), as well as camptothecin in the same final concentration. Incubation was conducted at +37 °C. […]

NIH 3T3 cells = assay: as above; assay type: cell-based, mice; conditions: NIH3T3 cell culture, 24 hours
Description: as §1, §2, §3, §4, §5, §6, §7

[1] = Stability of peptides in storage in solution (HPLC analysis); conditions: 0.05 M ammonium acetate buffer, approx. 1 mg/ml
Description: The peptides were dissolved in 0.05 M of an ammonium acetate buffer with pH 4.5 and pH 7.5 so that their concentrations achieved approximately 1 mg/ml. The solutions were sterilely filtered and kept in sterile, well-sealed vials. Upon expiration of the storage period the substances were analyzed with HPLC.

Annexin-V = target: T1, Annexin-V (Homo sapiens, UniProt P08758); conditions: calcium-dependent phospholipid binding; cited from earlier work
T1 sequence (P08758 1-320): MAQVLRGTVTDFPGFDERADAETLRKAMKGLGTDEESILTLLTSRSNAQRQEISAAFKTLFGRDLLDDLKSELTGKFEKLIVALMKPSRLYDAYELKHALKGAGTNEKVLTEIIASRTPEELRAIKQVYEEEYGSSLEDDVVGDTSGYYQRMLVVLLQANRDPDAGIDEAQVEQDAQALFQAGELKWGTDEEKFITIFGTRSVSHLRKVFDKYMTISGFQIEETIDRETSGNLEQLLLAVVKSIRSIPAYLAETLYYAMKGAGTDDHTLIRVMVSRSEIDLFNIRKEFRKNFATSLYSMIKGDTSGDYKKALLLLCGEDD

[2] = peptide 50 ng/ml + camptothecin 50 µM
[3] = peptide 100 ng/ml + camptothecin 50 µM
[4] = peptide 200 ng/ml + camptothecin 50 µM
[5] = peptide 400 ng/ml + camptothecin 50 µM

Row | Peptide stability in storage ([1]; 1hour, pH 4.5, 22°C) | Peptide stability in storage ([1]; 1hour, pH 7.5, 22°C) | Peptide stability in storage ([1]; 10 days, pH 4.5, 22°C) | Peptide stability in storage ([1]; 10 days, pH 7.5, 22°C) | Compound | Apoptosis (HeLa S3 cells; [2]) [%] | Necrosis (HeLa S3 cells; [2]) [%] | Apoptosis (HeLa S3 cells; [3]) [%] | Necrosis (HeLa S3 cells; [3]) [%] | Apoptosis (HeLa S3 cells; [4]) [%] | Necrosis (HeLa S3 cells; [4]) [%] | Apoptosis (HeLa S3 cells; [5]) [%] | Necrosis (HeLa S3 cells; [5]) [%] | Apoptosis (NIH 3T3 cells; [2]) [%] | Necrosis (NIH 3T3 cells; [2]) [%] | Apoptosis (NIH 3T3 cells; [3]) [%] | Necrosis (NIH 3T3 cells; [3]) [%] | Apoptosis (NIH 3T3 cells; [4]) [%] | Necrosis (NIH 3T3 cells; [4]) [%] | Apoptosis (NIH 3T3 cells; [5]) [%] | Necrosis (NIH 3T3 cells; [5]) [%] | further results
1 | 98.1 | 98.1 | 98.0 | 97.7 | H-Val-Asp-Glu-OH [VDE] | 2.2 | 3.1 | 3.1 | 3.6 | 3.5 | 4 | 2 | 2.4 | 3.5 | 5 | 1.8 | 2 | 2.2 | 3 | 3 | 4 | Peptide stability in storage ([1]; 30 days, pH 4.5, 22°C): 97.6; Peptide stability in storage ([1]; 30 days, pH 7.5, 22°C): 97.6; Peptide stability in storage ([1]; 60 days, pH 4.5, 22°C): 97.55; Peptide stability in storage ([1]; 60 days, pH 7.5, 22°C): 97.55; Peptide stability in storage ([1]; 90 days, pH 4.5, 22°C): 97.55; Peptide stability in storage ([1]; 90 days, pH 7.5, 22°C): 97.2
2 | 96.5 | 96.5 | 96.4 | 96.4 | H-Leu-Asp-Glu-OH [LDE] | 1 | 2.5 | 1.4 | 3.1 | 0.5 | 2.2 | 1 | 2.1 | 2 | 3.7 | 2.5 | 3.8 | 1.6 | 3.5 | 2.5 | 3.4 | Peptide stability in storage ([1]; 30 days, pH 4.5, 22°C): 96.4; Peptide stability in storage ([1]; 30 days, pH 7.5, 22°C): 96.4; Peptide stability in storage ([1]; 60 days, pH 4.5, 22°C): 96.2; Peptide stability in storage ([1]; 60 days, pH 7.5, 22°C): 96.2; Peptide stability in storage ([1]; 90 days, pH 4.5, 22°C): 96.2; Peptide stability in storage ([1]; 90 days, pH 7.5, 22°C): 95.6

Further lines, the compound ahead of its results:

Row | Compound | Peptide stability in storage ([1]; 1hour, pH 4.5, 22°C) | Peptide stability in storage ([1]; 1hour, pH 7.5, 22°C) | Peptide stability in storage ([1]; 10 days, pH 4.5, 22°C) | Peptide stability in storage ([1]; 10 days, pH 7.5, 22°C) | Apoptosis (HeLa S3 cells; [2]) [%] | Necrosis (HeLa S3 cells; [2]) [%] | Apoptosis (HeLa S3 cells; [3]) [%] | Necrosis (HeLa S3 cells; [3]) [%] | Apoptosis (HeLa S3 cells; [4]) [%] | Necrosis (HeLa S3 cells; [4]) [%] | Apoptosis (HeLa S3 cells; [5]) [%] | Necrosis (HeLa S3 cells; [5]) [%] | Apoptosis (NIH 3T3 cells; [2]) [%] | Necrosis (NIH 3T3 cells; [2]) [%] | Apoptosis (NIH 3T3 cells; [3]) [%] | Necrosis (NIH 3T3 cells; [3]) [%] | Apoptosis (NIH 3T3 cells; [4]) [%] | Necrosis (NIH 3T3 cells; [4]) [%] | Apoptosis (NIH 3T3 cells; [5]) [%] | Necrosis (NIH 3T3 cells; [5]) [%] | further results
3 | COC(=O)[C@H](CCC(=O)O)NC(=O)[C@@H](N)CC(=O)O [DEOMe, H-Asp-Glu-OCH3] (HELM PEPTIDE1{D.E.[CO[*:1]]}$$$$V2.0) | 98.0 | 98.0 | 98.1 | 98.0 | 4 | 5 | 2.1 | 4.5 | 2.3 | 4.5 | 2.5 | 5.5 | 4 | 6 | 2.5 | 4 | 3 | 5 | 3.3 | 6 | Peptide stability in storage ([1]; 30 days, pH 4.5, 22°C): 97.7; Peptide stability in storage ([1]; 30 days, pH 7.5, 22°C): 97.65; Peptide stability in storage ([1]; 60 days, pH 4.5, 22°C): 97.55; Peptide stability in storage ([1]; 60 days, pH 7.5, 22°C): 97.5; Peptide stability in storage ([1]; 90 days, pH 4.5, 22°C): 97.5; Peptide stability in storage ([1]; 90 days, pH 7.5, 22°C): 97.2
4 | CC(=O)N[C@@H](CC(=O)O)C(=O)N[C@@H](CCC(=O)O)C(=O)O [AcDE, Ac-Asp-Glu-OH] (Ac-Asp-Glu-OH) | – | – | – | – | 21 | 13 | 17 | 11 | 15 | 8 | 22 | 7 | 35 | 50 | 30 | 46 | 22 | 34 | 19 | 28 | –
5 | C[C@H](N)C(=O)N[C@@H](CC(=O)O)C(=O)N[C@@H](CCC(=O)O)C(=O)N[C@@H](CCCNC(=N)N)C(=O)O [ADER, H-Ala-Asp-Glu-Arg-OH] (H-ADER-OH) | 98.1 | 98.1 | 98.0 | 98.0 | 2 | 5.2 | 2.1 | 4.1 | 1.5 | 4 | 2.3 | 4 | 3 | 4 | 2.2 | 3.1 | 2.5 | 3.5 | 4.1 | 5 | Peptide stability in storage ([1]; 30 days, pH 4.5, 22°C): 97.9; Peptide stability in storage ([1]; 30 days, pH 7.5, 22°C): 97.7; Peptide stability in storage ([1]; 60 days, pH 4.5, 22°C): 98.0; Peptide stability in storage ([1]; 60 days, pH 7.5, 22°C): 97.7; Peptide stability in storage ([1]; 90 days, pH 4.5, 22°C): 97.8; Peptide stability in storage ([1]; 90 days, pH 7.5, 22°C): 97.6
6 | CCNC(=O)[C@H](CCC(=O)O)NC(=O)[C@@H](N)CC(=O)O [DENHEt, H-Asp-Glu-NH-CH2-CH3] (HELM PEPTIDE1{D.E.[CCN[*:1]]}$$$$V2.0) | 98.1 | 98.2 | 98.3 | 98.2 | 15 | 20 | 9 | 18 | 8 | 13 | 8 | 16 | 25 | 13 | 23 | 12 | 21 | 11 | 18 | 7 | Peptide stability in storage ([1]; 30 days, pH 4.5, 22°C): 98.15; Peptide stability in storage ([1]; 30 days, pH 7.5, 22°C): 98.10; Peptide stability in storage ([1]; 60 days, pH 4.5, 22°C): 98.0; Peptide stability in storage ([1]; 60 days, pH 7.5, 22°C): 98.0; Peptide stability in storage ([1]; 90 days, pH 4.5, 22°C): 97.9; Peptide stability in storage ([1]; 90 days, pH 7.5, 22°C): 97.85
7 | phosphatidylcholine | – | – | – | – | – | – | – | – | – | – | – | – | – | – | – | – | – | – | – | – | Kd (Annexin-V): 0.5 nM
